What was measured:
Format in all cases: functional
Aspergillus niger = assay: Antimicrobial activity against Aspergillus niger
Bacillus cereus = assay: Antimicrobial activity against Bacillus cereus
Micrococcus luteus = assay: Antimicrobial activity against Sarcina lutea
Bacillus subtilis = assay: Antimicrobial activity against Bacillus subtilis
Wickerhamomyces anomalus = assay: Antimicrobial activity against Hansenula anomala
Enterococcus faecalis = assay: Antimicrobial activity against Streptococcus faecalis
Staphylococcus aureus = assay: Antimicrobial activity against Staphylococcus aureus

SMILES	log(1/C) (Aspergillus niger)	log(1/C) (Bacillus cereus)	log(1/C) (Micrococcus luteus)	log(1/C) (Bacillus subtilis)	log(1/C) (Wickerhamomyces anomalus)	log(1/C) (Enterococcus faecalis)	log(1/C) (Staphylococcus aureus)
Oc1ccccc1C1CCCCC1	4						
Cc1ccc(C(C)(C)C)c(O)c1	3.7						
Cc1cc(C)cc(O)c1	3.26						
Cc1cc(Cl)ccc1O	3.7						
CC(C)c1ccccc1O	3.35						
Cc1cccc(C)c1O	3.35						
C=C(C)C(=O)Oc1ccccc1		2.89	2.89	2.89	2.89	2.89	2.89
C=C(C)C(=O)Oc1ccccc1Cl		3.08	3.08	3.08	3.28	3.08	3.08
C=C(C)C(=O)Oc1ccc(Cl)cc1		3.25	3.25	3.25	3.25	3.25	3.12
C=C(C)C(=O)Oc1cccc(Cl)c1		2.91	3.12	2.91	3.12	2.77	2.91
C=C(C)C(=O)Oc1ccc(Cl)cc1Cl		3.49	3.49	3.8	3.49	3.49	3.49
C=C(C)C(=O)Oc1c(Cl)cc(Cl)cc1Cl		3.76	3.24	3.76	3.46	3.76	3.76
C=C(C)C(=O)Oc1cc(Cl)c(Cl)cc1Cl		3.84	3.54	3.84	3.54	3.84	3.84
C=C(C)C(=O)Oc1c(Cl)cc(Cl)c(Cl)c1Cl		4.45	3.32	4.67	3.45	3.97	4.97
C=C(C)C(=O)Oc1c(Cl)c(Cl)c(Cl)c(Cl)c1Cl		5	3.71	5	3.35	4.71	5.19
C=C(C)C(=O)Oc1c(Br)c(Br)c(Br)c(Br)c1Br		3.85	3.64	5.32	3.35	3.64	5.32

SMILES	log(1/C) (Aspergillus niger)	log(1/C) (Bacillus cereus)	log(1/C) (Micrococcus luteus)	log(1/C) (Bacillus subtilis)	log(1/C) (Wickerhamomyces anomalus)	log(1/C) (Enterococcus faecalis)	log(1/C) (Staphylococcus aureus)
Cc1cc(Cl)cc(C)c1O	4.4						
CC(C)c1cc(Cl)ccc1O	4.3						
Cc1cc(O)c(C(C)(C)C)cc1Cl	4.3						
Oc1ccc(Cl)cc1C1CCCCC1	4.4						
Oc1ccc(Cl)cc1-c1ccccc1	4.52						
CCCCCCCCCCCC[N+](C)(C)Cc1cc([N+](=O)[O-])ccc1O							2.7
Oc1ccccc1-c1ccccc1 [2-PHENYLPHENOL]	4.1						
CCCCCCCCCCCC[N+](C)(C)Cc1ccccc1 [BENZODODECINIUM]							3.74
CCCCCCCCCCCCCCCC[N+](C)(C)Cc1ccccc1 [CETALKONIUM]							3.92
Cc1cc(O)ccc1Cl [CHLOROCRESOL]	3.7						
Cc1cc(O)cc(C)c1Cl [CHLOROXYLENOL]	4.22						
Cc1cccc(O)c1 [METACRESOL]	2.68						
CCCCCCCCCCCCCC[N+](C)(C)Cc1ccccc1 [MIRISTALKONIUM ION]							4.17
Cc1ccccc1O [ORTHOCRESOL]	2.7						
Oc1ccc(Cl)cc1 [PARACHLOROPHENOL]	3.35						
Oc1ccccc1 [PHENOL]	2.35						

From ChEMBL document CHEMBL3272085, “Quantitative structure-activity relationships. 2. A mixed approach, based on Hansch and Free-Wilson Analysis” (1976)
